Data from ChEMBL document CHEMBL4052667 (Bioorg Med Chem, 2017).
Calls of active or inactive are those of the source. No cut-off for these calls is given here.

Legend:
[1] = system: MDA-MB-231; assay: Antiproliferative activity against human MDA-MB-231 cells after 5 days by MTT assay; assay type: functional, cell-based; conditions: MDA-MB-231, 120 h
[2] = Safety index, ratio of compound IC50 to SAHA IC50 for human MCF10A cells; assay type: ADME, cell-based, MCF-10A; conditions: read-out: Ratio IC50
[3] = species: Homo sapiens; assay: Inhibition of HDAC in human MDA-MB-231 cells assessed as increase in hyperacetylation of histone H4K8 level up to 10 uM after 24 hrs by Western blot analysis; assay type: cell-based
[4] = system: MDA-MB-231; assay: Induction of apoptosis in human MDA-MB-231 cells assessed as late apoptotic cells at 5 uM after 48 hrs by Annexin V-FITC/propidium iodide staining based flow cytometry (reference value: 3.82%); assay type: functional
[5] = biological target: Poly [ADP-ribose] polymerase 2 (Homo sapiens, UniProt Q9UGN5); assay: Inhibition of recombinant human N-terminal GST-tagged PARP2 (2 to 583 residues) expressed in baculovirus infected Sf9 cells using biotinylated substrate after 1 hr by UV/Vis spectrophotometric analysis
[6] = system: MDA-MB-231; assay: Induction of apoptosis in human MDA-MB-231 cells assessed as increase in cleave caspase-8 level up to 10 uM measured after 24 hrs by Western blot analysis; assay type: functional, cell-based
[7] = system: MDA-MB-231; assay: Induction of apoptosis in human MDA-MB-231 cells assessed as necrotic cells at 10 uM after 48 hrs by Annexin V-FITC/propidium iodide staining based flow cytometry (reference value: 0.024%); assay type: functional
[8] = system: MDA-MB-231; assay: Induction of apoptosis in human MDA-MB-231 cells assessed as increase in cleave caspase-7 level up to 10 uM measured after 24 hrs by Western blot analysis; assay type: functional, cell-based
[9] = system: HeLa; assay: Antiproliferative activity against human HeLa cells after 72 hrs by MTT assay; assay type: functional, cell-based
[10] = system: MDA-MB-231; assay: Decrease in RAd51 protein level in human MDA-MB-231 cells up to 10 uM measured after 24 hrs by Western blot analysis; assay type: functional, cell-based
[11] = system: MCF-10A; assay: Antiproliferative activity against human MCF10A cells after 72 hrs by MTT assay; assay type: cell-based
[12] = system: MDA-MB-231; assay: Decrease in BRCA1 protein level in human MDA-MB-231 cells up to 10 uM measured after 24 hrs by Western blot analysis; assay type: functional, cell-based
[13] = system: MDA-MB-231; assay: Induction of apoptosis in human MDA-MB-231 cells assessed as early apoptotic cells at 10 uM after 48 hrs by Annexin V-FITC/propidium iodide staining based flow cytometry (reference value: 1.27%); assay type: functional
[14] = system: MDA-MB-231; assay: Induction of apoptosis in human MDA-MB-231 cells assessed as viable cells at 2.5 uM after 48 hrs by Annexin V-FITC/propidium iodide staining based flow cytometry (reference value: 94.9%); assay type: functional; conditions: MDA-MB-231, 48 h, read-out: Activity
[15] = system: HCC827; assay: Antiproliferative activity against human HCC827 cells after 72 hrs by MTT assay; assay type: functional, cell-based; conditions: HCC827, 72 h
[16] = system: MDA-MB-231; assay: Induction of apoptosis in human MDA-MB-231 cells assessed as viable cells at 5 uM after 48 hrs by Annexin V-FITC/propidium iodide staining based flow cytometry (reference value: 94.9%); assay type: functional; conditions: MDA-MB-231, 48 h, read-out: Activity
[17] = system: T47D; assay: Antiproliferative activity against human T47D cells after 72 hrs by MTT assay; assay type: functional, cell-based
[18] = system: U-937; assay: Antiproliferative activity against human U937 cells after 72 hrs by MTT assay; assay type: functional, cell-based; conditions: U-937, 72 h
[19] = system: MDA-MB-231; assay: Induction of apoptosis in human MDA-MB-231 cells assessed as necrotic cells at 5 uM after 48 hrs by Annexin V-FITC/propidium iodide staining based flow cytometry (reference value: 0.024%); assay type: functional
[20] = system: MDA-MB-231; assay: Induction of apoptosis in human MDA-MB-231 cells assessed as late apoptotic cells at 10 uM after 48 hrs by Annexin V-FITC/propidium iodide staining based flow cytometry (reference value: 3.82%); assay type: functional
[21] = system: HCC1937; assay: Antiproliferative activity against human HCC1937 cells after 3 days by MTT assay; assay type: functional, cell-based; conditions: HCC1937, 72 h
[22] = system: MDA-MB-231; assay: Induction of apoptosis in human MDA-MB-231 cells assessed as necrotic cells at 2.5 uM after 48 hrs by Annexin V-FITC/propidium iodide staining based flow cytometry (reference value: 0.024%); assay type: functional
[23] = system: Raji; assay: Antiproliferative activity against human Raji cells after 3 days by MTT assay; assay type: functional, cell-based; conditions: 72 h
[24] = system: MDA-MB-231; assay: Induction of apoptosis in human MDA-MB-231 cells assessed as reduction in full length PARP level measured after 24 hrs by Western blot analysis; assay type: functional, cell-based
[25] = biological target: Poly [ADP-ribose] polymerase 1 (Homo sapiens, UniProt P09874); assay: Inhibition of recombinant full length human N-terminal GST-tagged PARP1 expressed in baculovirus infected Sf9 cells using biotinylated substrate after 1 hr by UV/Vis spectrophotometric analysis
[26] = system: MDA-MB-231; assay: Induction of apoptosis in human MDA-MB-231 cells assessed as increase in cleave PARP level measured after 24 hrs by Western blot analysis; assay type: functional, cell-based
[27] = system: MDA-MB-231; assay: Antiproliferative activity against human MDA-MB-231 cells after 72 hrs by MTT assay; assay type: functional, cell-based; conditions: MDA-MB-231, 72 h
[28] = system: MDA-MB-231; assay: Induction of apoptosis in human MDA-MB-231 cells assessed as late apoptotic cells at 2.5 uM after 48 hrs by Annexin V-FITC/propidium iodide staining based flow cytometry (reference value: 3.82%); assay type: functional
[29] = system: MDA-MB-231; assay: Induction of apoptosis in human MDA-MB-231 cells assessed as early apoptotic cells at 2.5 uM after 48 hrs by Annexin V-FITC/propidium iodide staining based flow cytometry (reference value: 1.27%); assay type: functional
[30] = system: MCF7; assay: Antiproliferative activity against human MCF7 cells after 72 hrs by MTT assay; assay type: functional, cell-based; conditions: MCF7, 72 h
[31] = species: Homo sapiens; assay: Inhibition of HDAC in human MDA-MB-231 cells assessed as increase in acetylation of histone H3K9 level up to 10 uM after 24 hrs by Western blot analysis; assay type: cell-based
[32] = system: MDA-MB-231; assay: Induction of apoptosis in human MDA-MB-231 cells assessed as increase in cleave caspase-9 level at 10 uM measured after 24 hrs by Western blot analysis; assay type: functional, cell-based
[33] = biological target: Histone deacetylase 1 (Homo sapiens, UniProt Q13547); assay: Inhibition of HDAC1 (unknown origin) using acetylated peptide substrate preincubated for 15 mins followed by substrate addition measured after 60 mins by fluorescence analysis
[34] = system: MDA-MB-231; assay: Induction of apoptosis in human MDA-MB-231 cells assessed as early apoptotic cells at 5 uM after 48 hrs by Annexin V-FITC/propidium iodide staining based flow cytometry (reference value: 1.27%); assay type: functional
[35] = system: MDA-MB-231; assay: Induction of apoptosis in human MDA-MB-231 cells after 48 hrs by Annexin V-FITC/propidium iodide staining based flow cytometry; assay type: functional, cell-based

Chain of Poly [ADP-ribose] polymerase 2 (Q9UGN5 whole entry, the tested form may be a part): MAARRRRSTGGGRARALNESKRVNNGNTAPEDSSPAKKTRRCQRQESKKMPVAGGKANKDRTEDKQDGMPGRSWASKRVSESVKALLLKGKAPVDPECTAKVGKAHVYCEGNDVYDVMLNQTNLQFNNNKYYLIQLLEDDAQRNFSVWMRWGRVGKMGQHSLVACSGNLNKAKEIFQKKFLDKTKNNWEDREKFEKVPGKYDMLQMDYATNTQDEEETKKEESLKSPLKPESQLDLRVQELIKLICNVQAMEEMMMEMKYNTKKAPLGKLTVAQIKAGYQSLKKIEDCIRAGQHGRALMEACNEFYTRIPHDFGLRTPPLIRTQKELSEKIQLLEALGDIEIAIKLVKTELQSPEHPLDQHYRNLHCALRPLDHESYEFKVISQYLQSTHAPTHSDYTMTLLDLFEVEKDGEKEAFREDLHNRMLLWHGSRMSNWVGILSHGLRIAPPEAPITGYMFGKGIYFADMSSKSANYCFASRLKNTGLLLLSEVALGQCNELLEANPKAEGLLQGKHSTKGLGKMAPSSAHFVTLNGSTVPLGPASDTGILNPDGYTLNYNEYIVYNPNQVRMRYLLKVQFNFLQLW
Chain of Histone deacetylase 1 (Q13547 whole entry): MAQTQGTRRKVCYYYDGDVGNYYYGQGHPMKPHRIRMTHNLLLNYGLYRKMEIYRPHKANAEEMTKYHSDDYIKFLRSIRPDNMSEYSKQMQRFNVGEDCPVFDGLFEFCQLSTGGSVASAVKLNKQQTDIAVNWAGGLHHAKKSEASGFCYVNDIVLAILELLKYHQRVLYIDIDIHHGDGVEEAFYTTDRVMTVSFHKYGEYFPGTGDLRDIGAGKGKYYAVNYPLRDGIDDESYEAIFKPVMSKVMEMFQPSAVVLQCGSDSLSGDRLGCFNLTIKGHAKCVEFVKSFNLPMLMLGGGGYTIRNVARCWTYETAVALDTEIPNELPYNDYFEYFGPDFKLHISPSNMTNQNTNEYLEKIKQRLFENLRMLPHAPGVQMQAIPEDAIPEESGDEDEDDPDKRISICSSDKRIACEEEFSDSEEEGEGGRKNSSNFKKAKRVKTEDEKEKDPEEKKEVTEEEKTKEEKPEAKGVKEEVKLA
Chain of Poly [ADP-ribose] polymerase 1 (P09874 whole entry): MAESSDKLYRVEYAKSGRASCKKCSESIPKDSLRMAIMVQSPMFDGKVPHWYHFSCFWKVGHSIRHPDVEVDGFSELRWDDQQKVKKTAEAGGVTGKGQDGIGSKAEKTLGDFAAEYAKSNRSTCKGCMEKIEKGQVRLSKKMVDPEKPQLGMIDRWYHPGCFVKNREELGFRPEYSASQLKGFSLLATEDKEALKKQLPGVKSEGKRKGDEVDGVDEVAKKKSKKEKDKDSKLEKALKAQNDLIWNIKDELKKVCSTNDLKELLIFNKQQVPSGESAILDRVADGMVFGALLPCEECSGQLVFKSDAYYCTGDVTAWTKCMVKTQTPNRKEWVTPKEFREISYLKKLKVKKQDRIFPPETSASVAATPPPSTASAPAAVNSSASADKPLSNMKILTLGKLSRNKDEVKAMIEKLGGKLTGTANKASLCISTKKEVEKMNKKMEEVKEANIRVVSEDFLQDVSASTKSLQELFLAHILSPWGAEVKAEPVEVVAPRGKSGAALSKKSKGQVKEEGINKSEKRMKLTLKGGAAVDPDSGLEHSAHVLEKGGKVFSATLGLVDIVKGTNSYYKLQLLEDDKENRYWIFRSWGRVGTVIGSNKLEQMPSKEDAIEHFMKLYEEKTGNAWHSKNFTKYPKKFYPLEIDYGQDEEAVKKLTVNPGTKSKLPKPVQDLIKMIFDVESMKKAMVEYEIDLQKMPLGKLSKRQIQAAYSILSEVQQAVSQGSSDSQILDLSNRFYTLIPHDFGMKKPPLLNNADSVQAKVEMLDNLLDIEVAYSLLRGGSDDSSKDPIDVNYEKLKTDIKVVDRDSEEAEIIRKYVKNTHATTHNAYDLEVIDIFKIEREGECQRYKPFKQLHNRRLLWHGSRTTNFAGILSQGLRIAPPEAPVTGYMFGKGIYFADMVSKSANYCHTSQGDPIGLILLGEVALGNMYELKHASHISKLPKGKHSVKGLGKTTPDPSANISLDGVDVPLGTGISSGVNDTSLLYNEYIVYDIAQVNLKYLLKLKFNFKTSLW

## O=C(/C=C/c1ccc(CCNC(=O)c2cc(Cc3n[nH]c(=O)c4ccccc34)ccc2F)cc1)NO
[1]
  IC50: 220 nM
[2]
  selectivity ratio: 4.1
[3]
  inhibition: Active
[4]
  Activity: 33.5%
[5]
  IC50: 5.02 nM
[6]
  Activity: Active
[7]
  Activity: 0.447%
[8]
  Activity: Active
[9]
  IC50: 5100 nM
[10]
  Activity: Active
[11]
  IC50: 8650 nM
[12]
  Activity: Active
[13]
  Activity: 47%
[14]
  viability at 2.5 µM: 79.2%
[15]
  IC50: 1790 nM
[16]
  viability at 5 µM: 35.1%
[17]
  IC50: 2140 nM
[18]
  IC50: 4500 nM
[19]
  Activity: 2.79%
[20]
  Activity: 45.8%
[21]
  IC50: 2020 nM
[22]
  Activity: 2.29%
[23]
  IC50: 1290 nM
[24]
  Activity: Dose-dependent effect
[25]
  IC50: 68.2 nM
[26]
  Activity: Dose-dependent effect
[27]
  IC50: 1540 nM
[28]
  Activity: 8.03%
[29]
  Activity: 10.4%
[30]
  IC50: 3550 nM
[31]
  inhibition: Active
[32]
  Activity: Active
[33]
  IC50: 27.3 nM
[34]
  Activity: 28.6%
[35]
  Activity: Dose-dependent effect
